Values quoted from earlier work, collected in article PMC9885524 (Journal of natural products, 2023).

Test system: live SARS-CoV-2
Conditions: read-out: half-maximal effective concentrations against live SARS-CoV-2 in vitro; depending on the SARS-CoV-2 variant

In the case of `Oc1ccc([C@@H]2c3c(O)cc(O)cc3[C@@H]3c4c(cc(O)cc4[C@H]2[C@@H]2c4cc(O)cc5c4[C@@H](c4cc(O)cc(O)c4[C@H]2c2ccc(O)cc2)[C@H](c2ccc(O)cc2)O5)O[C@H]3c2ccc(O)cc2)cc1` [(−)-hopeaphenol, (−)-Hopeaphenol], the EC50 is given as 7.5 to 23 µM.
